Results reported in patent publication US6159733A, “Method for photoinactivating malignant cells” (priority 1996, dated 2000).

Columns and labels:
Experiment in all cases: Uptake of Pc 4 in mixtures of BM and cell lines
Assay type in all cases: cell-based, murine
[1] = system: BC3A cells; conditions: for Pc 4 content in cell line: BM/BC3A
Method: (§1) In mixing experiments, aliquots of Ly-5.2 BM and cell lines samples were mixed at different ratios. The combined cell concentration of each sample was 1.5×10^7 cells/mL. […] The cell lines were stained with anti-Ly-5.1^FITC. This treatment allowed clear resolution of the relatively small ABE-8.1/2 and BC3A cells from the bone marrow granulocytes. Immediately prior to the analyses, propidium iodide (PI, 0.5 μg/mL) was added to the samples to allow exclusion of dead cells (PI^+) from the analyses. The samples were analyzed in a FACStar^PLUS (BD) that was equipped with an argon ion laser tuned to 488 nm (200 mW) and a dye laser tuned to 610 nm (300 mW). FITC, PE, PI and Pc 4 fluorescence emissions were collected through 530/30, 575/42, 660/10, 670/10 nm band pass filters, respectively.

[2] = system: WEHI-3 cells
Method: as §1

[3] = system: BM progenitors (c-kit^+)
Method: as §1

[4] = system: P815 cells
Method: as §1

[5] = system: L1210 cells
Method: as §1

[6] = system: ABE-8.1/2 cells
Method: as §1

[7] = versus 1.5×10^7 cells/mL without BM

With `CN(C)CCC[Si](C)(C)O[Si]1(O)n2c3c4ccccc4c2N=C2N=C(N=c4c5ccccc5c(n41)=NC1=NC(=N3)c3ccccc31)c1ccccc12` (centres unmarked) [Pc 4, hydroxysiloxy-dimethylpropyl-N-dimethyl silicon phthalocyanine] the “Pc 4 content in cell line” value ([1]; BM fraction 0.50) was 104 Mean fluorescence/cell, the “Pc 4 content in cell line” value ([1]; BM fraction 0.70) was 26 Mean fluorescence/cell and the “Pc 4 content in cell line” value ([1]; BM fraction 0.80) was 138 Mean fluorescence/cell. The “Pc 4 content in cell line” value ([1]; BM fraction 0.90) was 153 Mean fluorescence/cell, the “Pc 4 content in cell line” value ([1]; BM fraction 0.95) was 166 Mean fluorescence/cell and the “Pc 4 uptake in mixtures versus cell line alone” value [1, 7] was “contained more Pc 4”. The “Pc 4 content in cell line” value ([2]; BM/WEHI-3, BM fraction 0.50) was 106 Mean fluorescence/cell, the “Pc 4 content in cell line” value ([2]; BM/WEHI-3, BM fraction 0.70) was 140 Mean fluorescence/cell and the “Pc 4 content in cell line” value ([2]; BM/WEHI-3, BM fraction 0.80) was 164 Mean fluorescence/cell. For the same compound, the “Pc 4 content in cell line” value ([2]; BM/WEHI-3, BM fraction 0.90) was 204 Mean fluorescence/cell, the “Pc 4 content in cell line” value ([2]; BM/WEHI-3, BM fraction 0.95) was 229 Mean fluorescence/cell and the “Pc 4 uptake in mixtures versus cell line alone” value [2, 7] was “contained more Pc 4”. For the same compound, the “Pc 4 content in c-kit^+ BM” value ([3]; BM/ABE-8.1/2, BM fraction 0.50) was 48 Mean fluorescence/cell, the “Pc 4 content in c-kit^+ BM” value ([3]; BM/ABE-8.1/2, BM fraction 0.70) was 52 Mean fluorescence/cell and the “Pc 4 content in c-kit^+ BM” value ([3]; BM/ABE-8.1/2, BM fraction 0.80) was 49 Mean fluorescence/cell. The “Pc 4 content in c-kit^+ BM” value ([3]; BM/ABE-8.1/2, BM fraction 0.90) was 55 Mean fluorescence/cell, the “Pc 4 content in c-kit^+ BM” value ([3]; BM/ABE-8.1/2, BM fraction 0.95) was 62 Mean fluorescence/cell and the “Pc 4 content in c-kit^+ BM” value ([3]; BM/BC3A, BM fraction 0.50) was 48 Mean fluorescence/cell. The “Pc 4 content in c-kit^+ BM” value ([3]; BM/BC3A, BM fraction 0.70) was 53 Mean fluorescence/cell, the “Pc 4 content in c-kit^+ BM” value ([3]; BM/BC3A, BM fraction 0.80) was 61 Mean fluorescence/cell and the “Pc 4 content in c-kit^+ BM” value ([3]; BM/BC3A, BM fraction 0.90) was 68 Mean fluorescence/cell. For the same compound, the “Pc 4 content in c-kit^+ BM” value ([3]; BM/BC3A, BM fraction 0.95) was 64 Mean fluorescence/cell, the “Pc 4 content in c-kit^+ BM” value ([3]; BM/L1210, BM fraction 0.50) was 35 Mean fluorescence/cell and the “Pc 4 content in c-kit^+ BM” value ([3]; BM/L1210, BM fraction 0.70) was 43 Mean fluorescence/cell. For the same compound, the “Pc 4 content in c-kit^+ BM” value ([3]; BM/L1210, BM fraction 0.80) was 48 Mean fluorescence/cell, the “Pc 4 content in c-kit^+ BM” value ([3]; BM/L1210, BM fraction 0.90) was 54 Mean fluorescence/cell and the “Pc 4 content in c-kit^+ BM” value ([3]; BM/L1210, BM fraction 0.95) was 60 Mean fluorescence/cell. For the same compound, the “Pc 4 content in c-kit^+ BM” value ([3]; BM/P815, BM fraction 0.50) was 45 Mean fluorescence/cell, the “Pc 4 content in c-kit^+ BM” value ([3]; BM/P815, BM fraction 0.70) was 51 Mean fluorescence/cell and the “Pc 4 content in c-kit^+ BM” value ([3]; BM/P815, BM fraction 0.80) was 64 Mean fluorescence/cell. For the same compound, the “Pc 4 content in c-kit^+ BM” value ([3]; BM/P815, BM fraction 0.90) was 63 Mean fluorescence/cell, the “Pc 4 content in c-kit^+ BM” value ([3]; BM/P815, BM fraction 0.95) was 64 Mean fluorescence/cell and the “Pc 4 content in c-kit^+ BM” value ([3]; BM/WEHI-3, BM fraction 0.50) was 30 Mean fluorescence/cell. For the same compound, the “Pc 4 content in c-kit^+ BM” value ([3]; BM/WEHI-3, BM fraction 0.70) was 38 Mean fluorescence/cell, the “Pc 4 content in c-kit^+ BM” value ([3]; BM/WEHI-3, BM fraction 0.80) was 46 Mean fluorescence/cell and the “Pc 4 content in c-kit^+ BM” value ([3]; BM/WEHI-3, BM fraction 0.90) was 58 Mean fluorescence/cell. The “Pc 4 content in c-kit^+ BM” value ([3]; BM/WEHI-3, BM fraction 0.95) was 65 Mean fluorescence/cell, the “Pc 4 uptake of BM progenitor fractions in mixtures versus BM alone” value ([3]; all mixtures (p>0.07)) was “lower, though not significantly” and the “Pc 4 content in cell line” value ([4]; BM/P815, BM fraction 0.50) was 205 Mean fluorescence/cell. For the same compound, the “Pc 4 content in cell line” value ([4]; BM/P815, BM fraction 0.70) was 241 Mean fluorescence/cell, the “Pc 4 content in cell line” value ([4]; BM/P815, BM fraction 0.80) was 270 Mean fluorescence/cell and the “Pc 4 content in cell line” value ([4]; BM/P815, BM fraction 0.90) was 312 Mean fluorescence/cell. The “Pc 4 content in cell line” value ([4]; BM/P815, BM fraction 0.95) was 335 Mean fluorescence/cell, the “Pc 4 uptake in mixtures versus cell line alone” value [4, 7] was “contained more Pc 4” and the “Pc 4 content in cell line” value ([5]; BM/L1210, BM fraction 0.50) was 153 Mean fluorescence/cell. The “Pc 4 content in cell line” value ([5]; BM/L1210, BM fraction 0.70) was 189 Mean fluorescence/cell, the “Pc 4 content in cell line” value ([5]; BM/L1210, BM fraction 0.80) was 210 Mean fluorescence/cell and the “Pc 4 content in cell line” value ([5]; BM/L1210, BM fraction 0.90) was 242 Mean fluorescence/cell. The “Pc 4 content in cell line” value ([5]; BM/L1210, BM fraction 0.95) was 260 Mean fluorescence/cell, the “Pc 4 uptake in mixtures versus cell line alone” value [5, 7] was “contained more Pc 4” and the “Pc 4 uptake in mixtures versus cell line alone” value ([6]; BM fraction<0.9, versus without BM) was “lower”. For the same compound, the “Pc 4 content in cell line” value ([6]; BM/ABE-8.1/2, BM fraction 0.50) was 74 Mean fluorescence/cell, the “Pc 4 content in cell line” value ([6]; BM/ABE-8.1/2, BM fraction 0.70) was 86 Mean fluorescence/cell and the “Pc 4 content in cell line” value ([6]; BM/ABE-8.1/2, BM fraction 0.80) was 91 Mean fluorescence/cell. The “Pc 4 content in cell line” value ([6]; BM/ABE-8.1/2, BM fraction 0.90) was 95 Mean fluorescence/cell and the “Pc 4 content in cell line” value ([6]; BM/ABE-8.1/2, BM fraction 0.95) was 100 Mean fluorescence/cell.
